The values that follow come from article PMC9653795, “Structure-Guide Design and Optimization of Potential Druglikeness Inhibitors for TGFβRI with the Pyrrolopyrimidine Scaffold” (Pharmaceuticals, 2022).

Structures are written as SMILES.

A word on the IC50: it is the concentration needed to halve the response being measured. The low end stands for greater potency in that assay, the high end for weaker potency in that assay.

This test deals with T1, TGFβRI (Homo sapiens, UniProt P36897).
T1 construct: gene TGFBR1
T1 sequence (P36897 34-503): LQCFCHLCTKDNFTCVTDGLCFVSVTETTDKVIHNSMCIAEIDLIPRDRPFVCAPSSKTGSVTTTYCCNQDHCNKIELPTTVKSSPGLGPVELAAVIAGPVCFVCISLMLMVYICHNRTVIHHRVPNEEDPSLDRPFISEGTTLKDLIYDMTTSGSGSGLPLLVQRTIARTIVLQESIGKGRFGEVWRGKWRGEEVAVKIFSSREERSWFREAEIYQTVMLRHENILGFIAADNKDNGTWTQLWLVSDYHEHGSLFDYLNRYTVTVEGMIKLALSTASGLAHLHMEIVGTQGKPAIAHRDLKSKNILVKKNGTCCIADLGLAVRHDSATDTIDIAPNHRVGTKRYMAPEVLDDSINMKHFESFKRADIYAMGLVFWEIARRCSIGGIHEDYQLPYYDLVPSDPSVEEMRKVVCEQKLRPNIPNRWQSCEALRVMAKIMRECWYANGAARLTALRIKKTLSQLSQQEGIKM
Description: ADP-Glo kinase assay. In kind it is biochemical.

On to `CC(C)(O)CNc1nc(Nc2ccncc2F)nc(-c2cccc(C(F)(F)F)n2)n1` [W8, 1-((4-((3-Fluoropyridin-4-yl)Amino)-6-(6-(Trifluoromethyl)Pyridin-2-yl)-1,3,5-Triazin-2-yl)Amino)-2-Methylpropan-2-ol], for which the midpoint of inhibition, the IC50, lay at 10.8 µM.
